Experimental data as given in patent US20110002897A1, “DIRECTED DIFFERENTIATION OF STEM CELLS” (Burnham Institute for Medical Research, priority 2009, published 2011).
“Also recorded” adds a separate entry of the source.

Columns and labels:
ALK 5, 4, 7 = details: Tojo et al. 2005; cited from earlier work
H9 hESCs = experiment: Feeder-free neural induction on Matrigel, PAX6/Nestin by FACS and immunostaining; type: cell-based, human; details: for total H9 hESCs differentiated into PAX6+/Nestin+ cells (FACS): 10 μM inhibitor together with 100 ng/mL MK+DAP
ERK1/2 = experiment: Western blot of phospho-ERK1/2 (MAPK pathway); type: cell-based, human; details: 100 ng/mL, 24 hr
From the text: (§1) The signal transduction pathway(s) involved in this highly efficient neural conversion was addressed. The PI3K/MAPK pathways were focused on since MK-induced activation of both pathways has been reported (Kadomatsu et al. Cancer Lett. 204:127-143, 2004; Stoica et al. JBC 277:35990-35998, 2002). Since both pathways are already active in undifferentiated hESCs and necessary for their growth (Bendall et al. Nature 448:1015-1021, 2007; Vallier et al. J. Cell. Sci. 118:4495-4509, 2005; Xu et al. Nat. Methods 2:185-190, 2005), cells were exposed to high concentrations (100 ng/mL) of MK, IGF-1, and FGF-2 for 24 hr and phosphorylation levels of AKT and ERK1/2 were compared (FIG. 4a).
(§2) Cell lysates were prepared in RIPA buffer containing protease and phosphatase inhibitors (Pierce). 4-12% gradient gels (NuPage) were used with Invitrogen's SureLock Mini-Cell and gel-to-membrane transfer was performed with the XCell Blot Module (Invitrogen). The following primary antibodies were used: goat MK (R&D), mouse and rabbit GAPDH (1:1000, Santa Cruz), p-AKT 5473 and total AKT (1:1000, Cell Signaling Technologies), phospho-ERK1/2 and total ERK1/2 (1:1000, Cell Signaling Technologies). The following secondary antibodies were used: donkey anti-mouse Alexa 680 (Invitrogen), donkey anti-rabbit Alexa 680, donkey anti-rabit 800 (Rockland), donkey anti-mouse 800. Western Blots were imaged using the Odyssey Infrared Imaging System (LI-COR).

AKT = experiment: Western blot of AKT phosphorylation at Serine 473 (PI3K pathway); type: cell-based, human; details: 100 ng/mL, 24 hr
From the text: as §1
as §2, with “Western Blots were imaged using the Odyssey Infrared Imaging System (LI-COR).” left out

hESCs (H9 cells) = experiment: Neural tube-like (NTL) structure formation by hESC colonies grown on HS27 fibroblasts; type: cell-based, human; details: for NTL structures observed: MK applied together with FGF-2, or MK replaced by the factor
Procedure: To confirm that increased MK levels correlate with differentiation, EBs from hESCs and HS27-iPSCs were generated and quantitatively analyzed MK expression. […] To test if exogenously added MK may display neural-inducing activities, hESCs were cultured in the presence of recombinant MK protein using two different assays. First, manually passaged hESCs (H9 cells) were plated on HS27 fibroblasts and grown in the presence of 100 ng/mL MK. […] These NTLs expressed the typical neuroectodermal markers PAX6 and Nestin (FIG. 1d) and, when single NTLs were manually picked under microscopic guidance and attached to laminin-coated dishes, neuronal cells started migrating out from these structures (FIG. 9). […] Second, MK-induced differentiation was investigated under feeder-free conditions. Manually passaged H9-hESCs cells were plated on Matrigel and grown in 100 ng/mL MK for 6 days.
Human ESC lines H1, H9, H14, BG02, HSF-6, and HUES13 were cultured on matrigel (BD) or Geltrex (Invitrogen) in the presence of MEF-CM (DMEM/F12, 20% Knockout Serum Replacement, non-essential amino acids, 2-mercaptoethanol). In some experiments, hESCs and iPSCs were cultured in mTeSR medium (Stem Cell Technologies). Neural cells were grown in N2B27 supplement (Gibco). The following reagents were used: MK (Millipore), FGF-2 (NIH/NCI), BDNF (Peprotech), GDNF (Peprotech), FGF-8 (Peprotech), SHH (Peprotech and R&D Systems), Noggin (Peprotech), IGF-1 (Peprotech), DLL1, DLL4, Jagged1 (R&D), all-trans RA (Sigma), Forskolin (Sigma), A 81-01 (Tocris), Dorsomorphin (Sigma), PNU-74654 (Sigma), Rapamycin (Sigma), LY294002 (Tocris), U0126 (Tocris).
Cells were fixed with 4% paraformaldehyde and stained with following antibodies: anti-mouse OCT-4 (1:200, Santa Cruz, C-10), rabbit Nanog (1:200, Santa Cruz, H-155), mouse TRA 1-81 (1:200, Millipore), alpha-Fetoprotein (1:50, Santa Cruz, AFP-11), goat MK (1:100, R&D Systems), goat SOX17 (1:100, R&D), goat Brachyury (1:100, R&D), PAX6 (1:300, Covance), mouse and rabbit Tuj1 (1:500, Covance), goat OTX2 (1:1000, Neuromics), mouse Nestin (1:400, Millipore), rabbit OLIG2 (1:50, Santa Cruz, H-68), mouse HB9 (1:50, 81.5C10, Developmental Studies Hybridoma Bank), rabbit GFAP (1:1000, DAKO), rabbit and sheep TH (1:500, Pel-Freez), rabbit PTPz (1:50, Santa Cruz), goat ALK (1:50, Santa Cruz). Light-microscopic immunostaining for PAX6 with the DAB method was performed according to the manufacturer (Vector).

Cc1cccc(-c2nn(C(=S)Nc3ccccc3)cc2-c2ccnc3ccccc23)n1 [A81-01]
potency relative to SB431542 (another inhibitor of ALK 5, 4, 7) (ALK 5, 4, 7): more potent

O=c1cc(N2CCOCC2)oc2c(-c3ccccc3)cccc12 [LY294002]
total H9 hESCs differentiated into PAX6+/Nestin+ cells (FACS) (H9 hESCs): ~95%

N#CC(=C(/N)Sc1ccccc1N)/C(C#N)=C(\N)Sc1ccccc1N [U0126]
total H9 hESCs differentiated into PAX6+/Nestin+ cells (FACS) (H9 hESCs): ~95%
PAX6 expression / neuralization in MK+DAP-treated hESC cultures (H9 hESCs; 40 μM inhibitor together with 100 ng/mL MK+DAP): dramatically reduced; also recorded: disruption of neuralization

FGF-2: fibroblast growth factor 2 (NIH/NCI)
MAPK activation (ERK1/2 phosphorylation level) (ERK1/2): significantly stronger activation

IGF-1: insulin-like growth factor 1 (Peprotech)
signaling through PI3K pathway (phosphorylation level of AKT) (AKT): signal through both the PI3K pathway and the MAPK pathway
MAPK activation (ERK1/2 phosphorylation level) (ERK1/2): moderate level
NTL structures observed (hESCs (H9 cells)): never observed

Jagged1: Notch ligand (R&D)
NTL structures observed (hESCs (H9 cells)): never observed

delta-like 4: Notch ligand (R&D)
NTL structures observed (hESCs (H9 cells)): never observed

B1: delta-like 1: Notch ligand (R&D) (protein, UniProt O00548 18-723, looked up)
Delta-like protein 1: QVWSSGVFELKLQEFVNKKGLLGNRNCCRGGAGPPPCACRTFFRVCLKHYQASVSPEPPCTYGSAVTPVLGVDSFSLPDGGGADSAFSNPIRFPFGFTWPGTFSLIIEALHTDSPDDLATENPERLISRLATQRHLTVGEEWSQDLHSSGRTDLKYSYRFVCDEHYYGEGCSVFCRPRDDAFGHFTCGERGEKVCNPGWKGPYCTEPICLPGCDEQHGFCDKPGECKCRVGWQGRYCDECIRYPGCLHGTCQQPWQCNCQEGWGGLFCNQDLNYCTHHKPCKNGATCTNTGQGSYTCSCRPGYTGATCELGIDECDPSPCKNGGSCTDLENSYSCTCPPGFYGKICELSAMTCADGPCFNGGRCSDSPDGGYSCRCPVGYSGFNCEKKIDYCSSSPCSNGAKCVDLGDAYLCRCQAGFSGRHCDDNVDDCASSPCANGGTCRDGVNDFSCTCPPGYTGRNCSAPVSRCEHAPCHNGATCHERGHRYVCECARGYGGPNCQFLLPELPPGPAVVDLTEKLEGQGGPFPWVAVCAGVILVLMLLLGCAAVVVCVRLRLQKHRPPADPCRGETETMNNLANCQREKDISVSIIGATQIKNTNKKADFHGDHSADKNGFKARYPAVDYNLVQDLKGDDTAVRDAHSKRDTKCQPQGSSGEEKGTPTTLRGGEASERKRPDSGCSTSKDTKYQSVYVISEEKDECVIATEV
NTL structures observed (hESCs (H9 cells)): never observed

B2: Noggin: BMP antagonist, recombinant protein (Peprotech) (protein, UniProt Q13253 28-232, looked up)
Noggin: QHYLHIRPAPSDNLPLVDLIEHPDPIFDPKEKDLNETLLRSLLGGHYDPGFMATSPPEDRPGGGGGAAGGAEDLAELDQLLRQRPSGAMPSEIKGLEFSEGLAQGKKQRLSKKLRRKLQMWLWSQTFCPVLYAWNDLGSRFWPRYVKVGSCFSKRSCSVPEGMVCKPSKSVHLTVLRWRCQRRGGQRCGWIPIQYPIISECKCSC
NTL structures observed (hESCs (H9 cells)): never observed

B3: MK: 13-kDa cysteine-rich secreted heparin-binding growth and differentiation factor; recombinant protein (Millipore) (protein, UniProt P21741 21-143, looked up)
Midkine: VAKKKDKVKKGGPGSECAEWAWGPCTPSSKDCGVGFREGTCGAQTQRIRCRVPCNWKKEFGADCKYKFENWGACDGGTGTKVRQGTLKKARYNAQCQETIRVTKPCTPKTKAKAKAKKGKGKD
total cells differentiated into PAX6+ cells (H9 hESCs; 100 ng/mL MK alone, Matrigel, feeder-free, 6 days, FACS and immunostainings): 20-40%
signaling through PI3K pathway (phosphorylation level of AKT) (AKT): signal through both the PI3K pathway and the MAPK pathway
MAPK activation (ERK1/2 phosphorylation level) (ERK1/2): moderate level
solitary growing hESC colonies directly differentiated into neural tube-like (NTL) structures (hESCs (H9 cells); 100 ng/mL MK, within 6-8 days): 5-10%
